Series [1] deals with SUDHL5 cells. The experiment in a line: Induction of cytotoxicity in SUDHL5 cells (Assay 6). The format is cell-based. The method, boiled down: (§1)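 Run alongside apoptosis measurements, this cytotoxicity readout used cells treated with compound for 5 h at 37 °C and quantified ATP-based luminescence with CellTiter-Glo.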
Series [2] deals with SUDHL5 cells. The experiment in a line: Antiproliferation assay SUDHL5 (Assay 7). The format is cell-based. Particulars: read-out: Antiproli SUDHL5 IC50 (median); 72 h, CellTiter-Glo. Put shortly:
(§2)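 Luminescent viability signal (CellTiter-Glo) after 72 h of treatment served as read-out. IC50 values were derived with day 0 luminescence as CI and DMSO wells as C0.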
On the technique in general: ATP-based viability assays read luminescence as a measure of living cells.

In another series the test system is SUDHL10 cells. The experiment in a line: Induction of cytotoxicity in SUDHL10 cells (Assay 6). Format: cell-based. The method, boiled down:
as §1

A further series concerns the target BCL-XL (Homo sapiens (Human), UniProt Q07817). Briefly: Protein-protein interaction assay BCL-XL/Bad BH3 peptide (BCL-XL assay, TR-FRET). Format: binding. Particulars: read-out: BCL-XL Assay IC50 (median). On the procedure:
Assay 2 Protein-Protein Interaction Assay: BCL-XL/Bad BH3 Peptide (BCL-XL Assay)
The dose-dependent inhibition by the compounds described in this invention of the interaction between BCL-XL and the BH3 domain of Bad (both human) was determined using a steady state binding competition assay with time-resolved fluorescence energy transfer (TR-FRET) readout. For that purpose BCL-XL (amino acids 1-212, C-terminal fused to a hexahistidine (6×His) tag (SEQ ID 3) and a synthetic Bad BH3-derived peptide of sequence Biotin-PEG2-PEG2-[…]-Nle-[…]-amide (SEQ ID 4) served as protein receptor and tracer ligand respectively. The recombinant BCL-XL protein (expressed in E. coli) was purchased from BPS Bioscience (San Diego, Calif., USA). The Bad BH3-derived peptide can be obtained from e.g. Biosyntan (Berlin, Germany).
In the assay 11 different concentrations of each compound (0.1 nM, 0.33 nM, 1.1 nM, 3.8 nM, 13 nM, 44 nM, 0.15 μM, 0.51 μM, 1.7 μM, 5.9 μM and 20 μM) were typically measured as duplicates in the same microtiter plate. For that, 100-fold concentrated DMSO solutions were prepared by serial dilutions (1:3.4) of a 2 mM stock solution in a clear, 384-well microtiter plate (Greiner Bio-One, Frickenhausen, Germany). From there, 50 nl were transferred in a dark test plate (Greiner Bio-One, Frickenhausen, Germany). The assay was initiated by addition of 2 μL of a 2,5-fold concentrated His-BCL-XL solution (usually for a 1 nM end concentration in 5 μL reaction volume) in aqueous assay buffer [50 mM Tris/HCl pH 7, 100 mM sodium chloride (NaCl), 50 mM potassium fluoride (KF), 0.005% Tween-20, 2 mM DTT, 0.1% bovine gamma globulin (BGG)] to the compounds in the assay plate. This was followed by a 10-minute incubation step at 22° C. for pre-equilibration of the putative complex between His-BCL-XL and the compounds. After that, 3 μL of a 1.67-fold concentrated solution (in assay buffer) consisting of Bad BH3-derived peptide (1 nM end concentration) and TR-FRET detection reagents [1.67 nM anti-His-Eu cryptate and 1.67 nM streptavidin-XL665 (both from Cisbio Bioassays, Codolet, France)], were added.
The mixture was incubated in the dark for one hour at 22° C. and then overnight at 4° C. The formation of BCL-XL/Bad complexes was determined by measuring the resonance energy transfer of the anti-His- Eu-cryptate antibody to the streptavidin-XL665 present in the reaction. For that purpose, the fluorescence emission at 620 nm and 665 nm after excitation at 330-350 nm was measured in a TR-FRET measuring instrument, for instance a Rubystar or a Pherastar (both from BMG Lab Technologies, Offenburg, Germany) or a Viewlux (Perkin-Elmer). The ratio of the emission at 665 nm and at 622 nm was used as indicator of the amount of BCL-XL/Bad complexes present.
The resulting data (ratio) were normalized, taking 0% inhibition as the mean value of control measurements (usually 32 data points) where all reagents were included. In this case 50 nl DMSO were used instead of compounds. […] IC50 values were determined by regression analysis based on a 4 parameter equation (minimum, maximum, IC50, Hill; Y=Max+(Min−Max)/(1+(X/IC50)^Hill) using the Screener Software (Genedata).
In general terms: Time-resolved FRET reads energy transfer from a long-lived donor to a nearby acceptor.

For another series, the system named is HMC-1-8 cells. The experiment in a line: Antiproliferation assay HMC-1-8 (Assay 7). Format: cell-based. The method, boiled down: as §2
The mark [3] stands for this setting: 5 h, CellTiter-Glo; read-out: Cytotox SUDHL5 IC50 (median).
Where [4] appears, read: 72 h, read-out: Antiproli HMC-1-8 IC50 median, 72 h, CellTiter-Glo.
[5] abbreviates: 5 h, CellTiter-Glo; read-out: Cytotox SUDHL10 IC50 (median).
[6] abbreviates: read-out: Antiproli HMC-1-8 IC50 median; 72 h, CellTiter-Glo.
[7] abbreviates: Homo sapiens, SU-DHL-5, 5 h, 5 h, CellTiter-Glo; read-out: Cytotox SUDHL5 IC50 (median).
Setting [8] is: 72 h, CellTiter-Glo, read-out: Antiproli HMC-1-8 IC50 median.
Setting [9] is: Homo sapiens, SU-DHL10, 5 h, 5 h, CellTiter-Glo; read-out: Cytotox SUDHL10 IC50 (median).

This is an account of results in patent US11440923B2, “Substituted macrocyclic indole derivatives” (Bayer Aktiengesellschaft, priority 2017, dated 2022).

For orientation: IC50 means the concentration that gives 50% inhibition.

Structures can show the parent of a compound that is named as a salt. Where two headings read alike, the source gives them in different places. Where only a bound is given, the exact number is not on record here.

Sequence of BCL-XL (Q07817 1-212): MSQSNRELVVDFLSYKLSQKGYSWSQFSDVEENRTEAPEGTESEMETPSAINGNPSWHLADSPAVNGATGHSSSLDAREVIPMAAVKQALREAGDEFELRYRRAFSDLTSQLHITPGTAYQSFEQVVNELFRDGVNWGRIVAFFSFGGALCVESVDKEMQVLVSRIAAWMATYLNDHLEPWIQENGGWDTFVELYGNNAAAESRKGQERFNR

For `Cc1c2c(nn1C)C(C)OCCCCn1c(C(=O)O)c(CCCOc3cccc4ccccc34)c3cccc-2c31` (single isomer, unassigned; stereoisomer 1) [Example 2, 2,3,15-trimethyl-7-[3-(naphthalen-1-yloxy)propyl]-2,10,11,12,13,15-hexahydropyrazolo[4′,3′:9,10][1,6]oxazacycloundecino[8,7,6-hi]indole-8-carboxylic Acid Trifluoroacetic Acid Salt (Stereoisomer 1)], the IC50 in the series with SUDHL5 cells [1] (read-out: Cytotox SUDHL5 IC50 (median); 5 h, CellTiter-Glo) was 1.3 µM; in the series with SUDHL5 cells [2], 3.5 µM; with SUDHL10 cells (read-out: Cytotox SUDHL10 IC50 (median); 5 h, CellTiter-Glo), 2.5 µM; on BCL-XL it was above 20 µM.
Turning to `CCc1c2c(nn1C)C(C(F)(F)F)OCCCCn1c(C(=O)O)c(CCCOc3cccc4ccccc34)c3ccc(Cl)c-2c31` (single isomer, unassigned; enantiomer 1) [Example 33, (+)-4-chloro-3-ethyl-2-methyl-7-{3-[(naphthalen-1-yl)oxy]propyl}-15-(trifluoromethyl)-2,10,11,12,13,15-hexahydropyrazolo[4′,3′:9,10][1,6]oxazacycloundecino[8,7,6-hi]indole-8-carboxylic Acid—N-ethylethanamine Salt (Enantiomer 1)], the half-inhibitory concentration (IC50) in the series with SUDHL5 cells [1] (setting [3]) is 1.1 µM; in the series on HMC-1-8 cells (setting [4]) it was 15 µM; with SUDHL10 cells (setting [5]), 3.7 µM; at BCL-XL, above 20 µM.
Regarding `CCC1OCCCCn2c(C(=O)O)c(CCCOc3cccc4ccccc34)c3ccc(Cl)c(c32)-c2c1nn(C)c2C` (single isomer, unassigned; enantiomer 2) [Example 30, (−)-4-chloro-15-ethyl-2,3-dimethyl-7-{3-[(naphthalen-1-yl)oxy]propyl}-2,10,11,12,13,15-hexahydropyrazolo[4′,3′:9,10][1,6]oxazacycloundecino[8,7,6-hi]indole-8-carboxylic Acid—N-ethylethanamine Salt (Enantiomer 2)], the IC50 is 29 µM with SUDHL5 cells [1] (setting [3]), 22.6 µM in the series on HMC-1-8 cells (setting [6]), above 33 µM with SUDHL10 cells (setting [5]) and above 20 µM at BCL-XL.
With `Cc1c2c(nn1C)C(CCN1CCOCC1)OCCCCn1c(C(=O)O)c(CCCOc3cccc4cc(F)ccc34)c3ccc(Cl)c-2c31` (single isomer, unassigned; enantiomer 2) [Example 18, 4-chloro-7-{3-[(6-fluoronaphthalen-1-yl)oxy]propyl}-2,3-dimethyl-15-[2-(morpholin-4-yl)ethyl]-2,10,11,12,13,15-hexahydropyrazolo[4′,3′:9,10][1,6]oxazacycloundecino[8,7,6-hi]indole-8-carboxylic Acid (Enantiomer 2)], the half-maximal inhibitory concentration (IC50) was 0.53 µM in the series on SUDHL5 cells [1] (setting [7]), 12.5 µM in the series with HMC-1-8 cells (setting [8]), 0.77 µM in the series with SUDHL10 cells (setting [9]) and above 20 µM at BCL-XL.
On to `CCc1c2c(nn1C)C(CCOC)OCCCCn1c(C(=O)O)c(CCCOc3cccc4cc(F)ccc34)c3ccc(Cl)c-2c31` (single isomer, unassigned; enantiomer 2) [Example 43, (−)-4-chloro-3-ethyl-7-{3-[(6-fluoronaphthalen-1-yl)oxy]propyl}-15-(2-methoxyethyl)-2-methyl-2,10,11,12,13,15-hexahydropyrazolo[4′,3′:9,10][1,6]oxazacycloundecino[8,7,6-hi]indole-8-carboxylic Acid—N-ethylethanamine Salt (Enantiomer 2)], for which the IC50 worked out at 18 µM in the series on SUDHL5 cells [1] (setting [3]), 26.5 µM in the series on HMC-1-8 cells (setting [6]), 19 µM in the series with SUDHL10 cells (setting [5]) and 17.2 µM on BCL-XL.
For `CCC1OCCCCn2c(C(=O)O)c(CCCOc3cccc4ccccc34)c3ccc(Cl)c(c32)-c2c1nn(C)c2C` (single isomer, unassigned; enantiomer 1) [Example 29, (+)-4-chloro-15-ethyl-2,3-dimethyl-7-{3-[(naphthalen-1-yl)oxy]propyl}-2,10,11,12,13,15-hexahydropyrazolo[4′,3′:9,10][1,6]oxazacycloundecino[8,7,6-hi]indole-8-carboxylic Acid—N-ethylethanamine Salt (Enantiomer 1)], the half-maximal inhibitory concentration (IC50) with SUDHL5 cells [1] (setting [3]) is 1.1 µM; in the series with HMC-1-8 cells (setting [4]), 23.2 µM; in the series with SUDHL10 cells (setting [5]), 3.9 µM; on BCL-XL it was 14.2 µM.
Turning to `CCc1c2c(nn1C)C(C1CC1)OCCCCn1c(C(=O)O)c(CCCOc3cccc4cc(F)ccc34)c3ccc(Cl)c-2c31` (racemic) [Example 38, (rac)-4-chloro-(15-rac)-cyclopropyl-3-ethyl-7-{3-[(6-fluoronaphthalen-1-yl)oxy]propyl}-2-methyl-2,10,11,12,13,15-hexahydropyrazolo[4′,3′:9,10][1,6]oxazacycloundecino[8,7,6-hi]indole-8-carboxylic Acid], the IC50 with SUDHL5 cells [1] (setting [7]) was 1.5 µM; in the series on HMC-1-8 cells (setting [8]) it was 20.3 µM; with SUDHL10 cells (setting [9]), 6.3 µM; at BCL-XL, above 20 µM.
For `Cc1c2c(nn1C)C(CCN1CCOCC1)OCCCCn1c(C(=O)O)c(CCCOc3cccc4cc(F)ccc34)c3ccc(Cl)c-2c31` (single isomer, unassigned; enantiomer 1) [Example 17, 4-chloro-7-{3-[(6-fluoronaphthalen-1-yl)oxy]propyl}-2,3-dimethyl-15-[2-(morpholin-4-yl)ethyl]-2,10,11,12,13,15-hexahydropyrazolo[4′,3′:9,10][1,6]oxazacycloundecino[8,7,6-hi]indole-8-carboxylic Acid—N-ethylethanamine (Enantiomer 1)], the IC50 with SUDHL5 cells [1] (setting [7]) is 0.011 µM; in the series with HMC-1-8 cells (setting [4]), 0.201 µM; with SUDHL10 cells (setting [9]), 0.0093 µM; at BCL-XL it was above 20 µM.
Turning to `CCc1c2c(nn1C)C(CCO)OCCCCn1c(C(=O)O)c(CCCOc3cccc4cc(F)ccc34)c3ccc(Cl)c-2c31` (single isomer, unassigned; enantiomer 2) [Example 46, (−)-4-chloro-3-ethyl-7-{3-[(6-fluoronaphthalen-1-yl)oxy]propyl}-15-(2-hydroxyethyl)-2-methyl-2,10,11,12,13,15-hexahydropyrazolo[4′,3′:9,10][1,6]oxazacycloundecino[8,7,6-hi]indole-8-carboxylic Acid (Enantiomer 2)], the half-inhibitory concentration (IC50) with SUDHL5 cells [1] (setting [3]) is 4.3 µM; in the series on HMC-1-8 cells (72 h, CellTiter-Glo; read-out: Antiproli HMC-1-8 IC50 median), above 33 µM; in the series on SUDHL10 cells (setting [5]) it was 5.5 µM; on BCL-XL it was above 20 µM.
Regarding `Cc1c2c(nn1C)C(C1CC1)OCCCCn1c(C(=O)O)c(CCCOc3cccc4ccccc34)c3ccc(Cl)c-2c31` (single isomer, unassigned; enantiomer 2) [Example 36, (−)-4-chloro-15-cyclopropyl-2,3-dimethyl-7-{3-[(naphthalen-1-yl)oxy]propyl}-2,10,11,12,13,15-hexahydropyrazolo[4′,3′:9,10][1,6]oxazacycloundecino[8,7,6-hi]indole-8-carboxylic Acid N-ethylethanamine Salt (Enantiomer 2)], the half-maximal inhibitory concentration (IC50) with SUDHL5 cells [1] (setting [3]) was found to be 21 µM; with HMC-1-8 cells (setting [6]), 19 µM; in the series on SUDHL10 cells (setting [5]), 27 µM; at BCL-XL it was 13.8 µM.
